Measurements reported in US20100184722A1, “INCLUSION COMPLEXES OF ALPHA-CYCLODEXTRIN AND SILDENAFIL SALT” (Shimoda Biotech (Pty) Ltd, priority 2008, published 2010).
Where a name gives a salt, the structure may show the parent alone.

Columns and labels:
Type in all cases: physicochemical
[1] = Solubility of sildenafil base in ddH2O with cyclodextrins (24 h shaking, HPLC); conditions: ACD 0-100 mg/ml, GCD 0-200 mg/ml, HPBCD 0-200 mg/ml, BCD 0-15 mg/ml
Method: These samples were shaken for 24 hours at 200 rpm. Excess sildenafil citrate was present in each of the vials for the duration of the solubility study. Following the shaking, the vial contents were filtered through 0.45 μm filters to remove any excess solute. The remaining solution was assayed by HPLC for sildenafil base content. […] This is in agreement with the findings of Omani, et al. (2006).

[2] = Solubility of sildenafil citrate in ddH2O with cyclodextrins (24 h shaking, HPLC); conditions: ACD 0-100 mg/ml, GCD 0-200 mg/ml, HPBCD 0-200 mg/ml, BCD 0-15 mg/ml
Method: Solutions were prepared by adding 50 mg of sildenafil citrate to ddH2O samples with varying quantities of the different cyclodextrins. FIG. 1B depicts solubility data of sildenafil citrate complexed with beta-cyclodextrin (BCD) at 0-15 mg/ml These samples were shaken for 24 hours at 200 rpm. Excess sildenafil citrate was present in each of the vials for the duration of the solubility study. Following the shaking, the vial contents were filtered through 0.45 μm filters to remove any excess solute. The remaining solution was assayed by HPLC for sildenafil citrate content.

[3] = pH dependence of sildenafil citrate solubility in phosphate-citrate buffer with or without cyclodextrin; conditions: phosphate-citrate buffer (0.1M), pH 3.0-8.0
Method: Phosphate-citrate buffer (0.1M) solutions are prepared with pH's of 3.0; 4.0, 5.0; 6.0; 7.0 and 8.0 in ddH2O (de-oxygenated water by purging with nitrogen gas). […] The maximal aqueous solubility for sildenafil citrate appears to occur at pH 5.

With `CCCc1nn(C)c2c(=O)[nH]c(-c3cc(S(=O)(=O)N4CCN(C)CC4)ccc3OCC)nc12` [sildenafil base, 5-[2-ethoxy-5-(4-methylpiperazin-1-yl)sulfonylphenyl]-1-methyl-3-propyl-4H-pyrazolo[5,4-e]pyrimidin-7-one] the “aqueous solubility of sildenafil base in the presence of cyclodextrins vs no cyclodextrin” value [1] was “improved solubility”.

In the case of `CCCc1nn(C)c2c(=O)[nH]c(-c3cc(S(=O)(=O)N4CCN(C)CC4)ccc3OCC)nc12` [sildenafil citrate, 1-[[3-(6,7-dihydro-1-methyl-7-oxo-3-propyl-1H15-pyrazolo[4,3-d]pyrimidin-5-yl)-4-ethoxyphenyl]sulfonyl]-4-methylpiperazine citrate], the “aqueous solubility of sildenafil citrate in the presence of cyclodextrins vs no cyclodextrin” value [2] is reported as “improved solubility” and the “pH of maximal aqueous solubility” value [3] is reported as 5.
